Patent publication US6465654B2, “Process for preparing 1-substituted, 2-substituted 1H-imidazo[4, 5-c]quinoline-4-amines” (3M Innovative Properties Company, priority 1991, dated 2002)

How the values were obtained:
[1] = system: vesicular stomatitis virus (VSV); test: microbe, parasite or virus in culture; format: cell-based; details: Vesicular stomatitis virus, read-out: VSV Yield Inhibition
interferon [2] = test: Interferon induction in mice; format: in vivo; details: mouse serum
Outline: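 Mouse serum collected at 1, 2 and 4 h (separate groups), pooled, stored at −70° C, then assayed as for human-cell interferon. Values in α/β reference units/mL against a mouse MU-1-IF standard; "<" marks levels below assay sensitivity.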

interferon-α [3] = test: Interferon-α induction in human cells, PBM; format: cell-based; details: 24 hours
MC-26 colon tumor cells = test: Inhibition of MC-26 tumors in mice, 14 day lung colony count; format: in vivo; details: lung colonies day 14, 4×10^4 MC-26 cells i.v., oral 30 mg/kg on days 3-7 and 10-14; control 385 ± 31
Experimental: The mice are sacrificed 14 days later. […] Five mice are in each treatment group and comparisons are made to controls. […] The mice in the control groups were dosed orally with saline (10 mL/kg) on days 3, 4, 5, 6, and 7, and with water (10 mL/kg) on days 10, 11, 12, 13, and 14.

interferon [4] = test: Interferon induction in guinea pigs (serum interferon titer); format: in vivo; details: guinea pig serum 24 hours after initial oral dose
From the text: Female Hartley guinea pigs weighing 200 to 250 g are anesthetized with methoxyflurane (available under the […] from Pitman-Moore, Inc., Washington Crossing, N.J.), after which the vaginal area is swabbed with a dry cotton swab. The guinea pigs are then infected intravaginally with a cotton swab saturated with Herpes simplex virus Type II strain 333 (1×10^5 plaque forming units/mL). Guinea pigs are assigned to groups of 7 animals; one group for each treatment and one to serve as a control (vehicle treated). The compounds of the invention are formulated in water containing 5% Tween 80 (a polyoxyethylene sorbitan monooleate available from Aldrich Chemical Company, Inc., Milwaukee, Wis.). The, guinea pigs are treated orally once daily for four consecutive days starting 24 hours after infection. Twenty-four hours after the initial dose of test compound has been administered, blood is obtained from 3 guinea pigs from each treatment group by cardiac puncture of methoxyflurane anesthetized animals. Blood is pooled and allowed to clot at room temperature. After low speed centrifugation, serum is collected and stored at -70° C. until analysis. Interferon levels in the guinea pig serum are determined in a standard microtiter assay using transformed guinea pig cells (ATCC CRL 1405). The interferon assay is done in 96 well microtiter plates. Confluent monolayers of transformed guinea pig cells are treated with dilutions of guinea pig serum made with medium 199 (GIBCO, Grand Island, N.Y.). The cell and serum dilutions are incubated at 37° C. overnight. The following day, the medium and serum are removed and about 10 plaque forming units of Mengovirus are added to each well. Controls consist of wells that receive no guinea pig serum (virus positive control) and wells that receive no virus (virus negative control). Cells and virus are incubated for 2 to 3 days at 37° C. before quantifying for viral cytopathic effect. The viral cytopathic effect is quantified by staining with 0.05% crystal violet followed by spectrophotometric absorbance measurements. The titer of interferon in serum is expressed as units/mL and is the reciprocal of the highest dilution that protects cells from virus.

[5] = system: Herpes simplex virus Type II strain 333; test: Antiviral activity in guinea pigs infected with Herpes simplex virus Type II (lesion inhibition); format: in vivo; details: oral once daily for four days
From the text: Female Hartley guinea pigs weighing 200 to 250 g are anesthetized with methoxyflurane (available under the […] from Pitman-Moore, Inc., Washington Crossing, N.J.), after which the vaginal area is swabbed with a dry cotton swab. The guinea pigs are then infected intravaginally with a cotton swab saturated with Herpes simplex virus Type II strain 333 (1×10^5 plaque forming units/mL). Guinea pigs are assigned to groups of 7 animals; one group for each treatment and one to serve as a control (vehicle treated). The compounds of the invention are formulated in water containing 5% Tween 80 (a polyoxyethylene sorbitan monooleate available from Aldrich Chemical Company, Inc., Milwaukee, Wis.). The, guinea pigs are treated orally once daily for four consecutive days starting 24 hours after infection. Antiviral activity is evaluated by comparing lesion development in compound-treated versus vehicle-treated guinea pigs. […] The maximum lesion score of each guinea pig is used to calculate the percentage lesion inhibition. The percentage lesion inhibition is calculated as follows: […]

interferon-α [6] = test: Interferon-α induction in human cells, diluted whole blood; format: cell-based; details: 24 hours

| Compound | Interferon induction in mice (interferon [2]; oral 0.3 mg/kg, 1 hr) | Interferon induction in mice (interferon [2]; oral 0.3 mg/kg, 2 hr) | Interferon induction in mice (interferon [2]; oral 0.3 mg/kg, 4 hr) | Interferon induction in mice (interferon [2]; oral 1 mg/kg, 1 hr) [Reference Units/mL] | Interferon induction in mice (interferon [2]; oral 1 mg/kg, 2 hr) [Reference Units/mL] | Interferon induction in mice (interferon [2]; oral 1 mg/kg, 4 hr) | Interferon induction in mice (interferon [2]; oral 3 mg/kg, 1 hr) [Reference Units/mL] | Interferon induction in mice (interferon [2]; oral 3 mg/kg, 2 hr) [Reference Units/mL] | Interferon induction in mice (interferon [2]; oral 3 mg/kg, 4 hr) [Reference Units/mL] | Interferon induction in mice (interferon [2]; oral 10 mg/kg, 1 hr) [Reference Units/mL] | Interferon induction in mice (interferon [2]; oral 10 mg/kg, 2 hr) [Reference Units/mL] | Interferon induction in mice (interferon [2]; oral 10 mg/kg, 4 hr) [Reference Units/mL] | Interferon-α induction (interferon-α [3]; dose concentration 0.01 μg/mL) | Interferon-α induction (interferon-α [3]; dose concentration 0.05 μg/mL) | Interferon-α induction (interferon-α [3]; dose concentration 0.10 μg/mL) | Interferon-α induction (interferon-α [3]; dose concentration 0.50 μg/mL) | Interferon-α induction (interferon-α [3]; dose concentration 1.0 μg/mL) | Interferon-α induction (interferon-α [3]; dose concentration 5.0 μg/mL) | Number of Colonies (MC-26 colon tumor cells) | Reference Units/mL (interferon in serum) (interferon [4]; 0.5 mg/kg) | further results |
| --- | --- | --- | --- | --- | --- | --- | --- | --- | --- | --- | --- | --- | --- | --- | --- | --- | --- | --- | --- | --- | --- |
| CSCc1nc2c(N)nc3ccccc3c2n1Cc1ccccc1 [Example 31, 2-Methylthiomethyl-1-phenylmethyl-1H-imidazo-[4,5-c]quinolin-4-amine] | <61 Reference Units/mL | <61 Reference Units/mL | <61 Reference Units/mL | <61 | 140 | ≦61 Reference Units/mL | 420 | 420 | 320 | 960 | 5000 | 550 | <4 α Reference Units/mL | 18 α Reference Units/mL | 2500 α Reference Units/mL | 370 α Reference Units/mL | 280 α Reference Units/mL | 370 α Reference Units/mL | 221 ± 37 |  | log reduction at 1 µg/mL [1]: 5; log reduction at 5 µg/mL [1]: 5; log reduction at 10 µg/mL [1]: 6 |
| COCc1nc2c(N)nc3ccccc3c2n1CC(C)C [Example 34, 2-Methoxymethyl-1-(2-methylpropyl)-1H-imidazo[4,5-c]quinolin-4-amine] | ≦61 Reference Units/mL | ≦61 Reference Units/mL | ≦61 Reference Units/mL | 140 | 320 | ≦61 Reference Units/mL | 420 | 420 | 140 | 1100 | 1100 | 180 | <4 α Reference Units/mL | <4 α Reference Units/mL | 1600 α Reference Units/mL | 550 α Reference Units/mL | 180 α Reference Units/mL | 200 α Reference Units/mL | 196 ± 20 |  |  |
| CC(C)Cn1c(CN=[N+]=[N-])nc2c(N)nc3ccccc3c21 [Example 11, 2-Azidomethyl-1-(2-methylpropyl)-1H-imidazo-[4,5-c]quinolin-4-amine] |  |  |  | 280 | 1100 | 71 Reference Units/mL | 490 | 1900 | 30 | 1100 | 2500 | 280 | 330 α Reference Units/mL | 330 α Reference Units/mL | 570 α Reference Units/mL | 570 α Reference Units/mL | 570 α Reference Units/mL | 570 α Reference Units/mL | 204 ± 28 | >12,800 Units/mL | Reference Units/mL (interferon in serum) (interferon [4]; 1 mg/kg): >12,800 Units/mL; % Lesion Inhibition ([5]; dose 0.1 mg/kg): 50%; % Lesion Inhibition ([5]; dose 0.5 mg/kg): 100%; % Lesion Inhibition ([5]; dose 1 mg/kg): 100%; Interferon induction in mice (interferon [2]; oral 30 mg/kg, 1 hr): 850 Reference Units/mL; Interferon induction in mice (interferon [2]; oral 30 mg/kg, 2 hr): 2500 Reference Units/mL; Interferon induction in mice (interferon [2]; oral 30 mg/kg, 4 hr): 40 Reference Units/mL; Interferon-α induction (interferon-α [6]; dose concentration 0.10 μg/mL): 330 α Reference Units/mL; Interferon-α induction (interferon-α [6]; dose concentration 0.50 μg/mL): 330 α Reference Units/mL; Interferon-α induction (interferon-α [6]; dose concentration 1.0 μg/mL): 250 α Reference Units/mL; Interferon-α induction (interferon-α [6]; dose concentration 5.0 μg/mL): 140 α Reference Units/mL |
| CC(C)Cn1c(CN2CCOCC2)nc2c(N)nc3ccccc3c21 [Example 12, 1-(2-Methylproyl)-2-morpholinomethyl-1H-imidazo-[4,5-c]quinolin-4-amine] |  |  |  | 94 | 160 | <18 Reference Units/mL | 54 | 40 | <18 | 850 | 850 | 40 |  |  |  |  |  |  | 149 ± 21 | >12,800 Units/mL | Reference Units/mL (interferon in serum) (interferon [4]; 2 mg/kg): >12,800 Units/mL; % Lesion Inhibition ([5]; dose 0.5 mg/kg): 82%; % Lesion Inhibition ([5]; dose 2 mg/kg): 100%; Interferon induction in mice (interferon [2]; oral 30 mg/kg, 1 hr): 850 Reference Units/mL; Interferon induction in mice (interferon [2]; oral 30 mg/kg, 2 hr): 5800 Reference Units/mL; Interferon induction in mice (interferon [2]; oral 30 mg/kg, 4 hr): 40 Reference Units/mL; Interferon-α induction (interferon-α [6]; dose concentration 0.10 μg/mL): <1.8 α Reference Units/mL; Interferon-α induction (interferon-α [6]; dose concentration 0.50 μg/mL): 37 α Reference Units/mL; Interferon-α induction (interferon-α [6]; dose concentration 1.0 μg/mL): 140 α Reference Units/mL; Interferon-α induction (interferon-α [6]; dose concentration 5.0 μg/mL): 330 α Reference Units/mL |
